Measured values: ChEMBL document CHEMBL1201862, “PubChem BioAssay data set” (2004)
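Briefly, cells in 96-well plates were exposed to five compound concentrations for 48 h, and endpoints were estimated by linear interpolation. At the GI50, growth is halved.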 The source made the active and inactive calls. Rule as the data show it: active = GI50 up to about 1.1 µM and inactive = higher.

What was measured:
Test in all cases: DTP human tumour cell line panel, 48 h
[1] = system: DMS-114
[2] = system: DMS-273
[3] = system: HOP-18
[4] = system: RXF 631
[5] = system: LXFL 529
[6] = system: SNB-78
[7] = system: DLD-1
[8] = system: KM-20L2
[9] = system: XF498

| SMILES | GI50 [1] | GI50 [2] | GI50 [3] | GI50 [4] | GI50 [5] | GI50 [6] | GI50 [7] | GI50 [8] | GI50 [9] |
| --- | --- | --- | --- | --- | --- | --- | --- | --- | --- |
| O=c1[c-](-c2ccccc2)[se]c(-c2ccccc2)[n+]1-c1ccccc1 | 4.69 µM (inactive) | 19.1 µM (inactive) | 11.5 µM (inactive) | 13.6 µM (inactive) | 13.5 µM (inactive) | 3.81 µM (inactive) | 2 µM (inactive) |  |  |
| CC(=O)Nc1ccc(Cl)c(Cl)c1 | > 100 µM (inactive) | > 100 µM (inactive) |  |  | > 100 µM (inactive) | > 100 µM (inactive) | > 100 µM (inactive) | > 100 µM (inactive) |  |
| Cc1cc2c(cc1C)[n+]([O-])c(C(=O)C/C(=N/NC(=O)CC#N)C(=O)Nc1ccccc1C(F)(F)F)c(C)[n+]2[O-] | 28.6 µM (inactive) | 53.6 µM (inactive) | > 100 µM (inactive) | 16.9 µM (inactive) | 45.6 µM (inactive) | 2.59 µM (inactive) |  | 37.5 µM (inactive) | 82.2 µM (inactive) |
| O=C1C=C(Nc2ccc(Br)cc2)c2ccccc2C1=O | 4.65 µM (inactive) | 12.2 µM (inactive) |  |  | 12.5 µM (inactive) |  |  | 23 µM (inactive) |  |
| O=C(O)/C(=C/c1ccccc1[N+](=O)[O-])c1ccccc1 | > 100 µM (inactive) | > 100 µM (inactive) |  | > 100 µM (inactive) | > 100 µM (inactive) | > 100 µM (inactive) | > 100 µM (inactive) | > 100 µM (inactive) | > 100 µM (inactive) |
| NC1=NN(c2ccccc2)C(=O)C1/C(=N\NC(=O)c1cc2ccccc2cc1O)C(=O)Nc1ccc(Cl)c(Cl)c1 (configuration not stated) | 25.2 µM (inactive) | 11.6 µM (inactive) | 31.6 µM (inactive) |  | 34.4 µM (inactive) | 23.8 µM (inactive) | 30.5 µM (inactive) | 32.5 µM (inactive) | 25.1 µM (inactive) |
| COC(=O)C12OCC34C(CC5C(C)=CC(=O)C(O)C5(C)C3C(O)C1O)OC(=O)C(OC(=O)CC(C)C)C24 (configuration not stated) | 0.000659 µM (active) | 0.000401 µM (active) |  |  | < 0.0255 µM (active) | 0.00346 µM (active) | 0.00149 µM (active) | 0.00288 µM (active) | 0.00116 µM (active) |
| COC(=O)C1=C(c2ccc3c(c2)OCO3)O[C@H](c2ccc3c(c2)OCO3)[C@H]1COC(C)=O | 57.9 µM (inactive) | 56.2 µM (inactive) | 36.6 µM (inactive) |  | 32.3 µM (inactive) | 66.1 µM (inactive) | 35.7 µM (inactive) | 71.1 µM (inactive) | 41.8 µM (inactive) |
| CCCCCCCCCc1cc(=O)c2c(O)cccc2o1 | 33 µM (inactive) | 41.8 µM (inactive) | > 100 µM (inactive) | 65.6 µM (inactive) | 39.2 µM (inactive) | 53 µM (inactive) | 61.8 µM (inactive) |  | 31.2 µM (inactive) |
| C[N+](C)(C)CC(=O)N/N=C/c1oc(-c2cccc([N+](=O)[O-])c2)c(-c2cccc([N+](=O)[O-])c2)c1[N+](=O)[O-] | 47.3 µM (inactive) |  |  | 49.7 µM (inactive) |  |  | 64.4 µM (inactive) | > 100 µM (inactive) |  |
| CCOC(=O)Nc1cc2nnc(-c3ccccc3)nc2c(N)n1 | 27.6 µM (inactive) | 7.36 µM (inactive) |  |  | 32.1 µM (inactive) |  | 18.6 µM (inactive) | 4.25 µM (inactive) | 31.4 µM (inactive) |
| COc1cc(C2C(Cl)C(=O)N2NC(=O)c2ccc(N)cc2)cc(Br)c1O (configuration not stated) | 6.35 µM (inactive) | 18 µM (inactive) |  |  | 3.15 µM (inactive) | 17.5 µM (inactive) | 19 µM (inactive) | 17.7 µM (inactive) | 17 µM (inactive) |
| CC(=O)Nc1ccc(-c2nnc(SCC(=O)Nc3ccccc3Cl)o2)cc1 | > 100 µM (inactive) | > 100 µM (inactive) | 87.7 µM (inactive) |  | > 100 µM (inactive) | > 100 µM (inactive) | > 100 µM (inactive) | > 100 µM (inactive) |  |
| O=C(Nc1ccc(Cl)cc1Cl)OC(Cn1cncn1)c1ccc(Cl)cc1Cl (configuration not stated) | 16 µM (inactive) | 17.4 µM (inactive) | 23.8 µM (inactive) | 18.2 µM (inactive) | 16.2 µM (inactive) | 15.6 µM (inactive) | 18.5 µM (inactive) | 16.5 µM (inactive) | 14.7 µM (inactive) |
| CC(C)(C)c1cc(CCC(=O)Nc2ccc(Cl)cc2)nc(NC#N)n1 |  | > 100 µM (inactive) | > 100 µM (inactive) |  | > 100 µM (inactive) | > 100 µM (inactive) | > 100 µM (inactive) | > 100 µM (inactive) |  |
| CO[C@@H]1[C@H](OC(=O)NC(=O)CCl)CC[C@]2(CO2)[C@H]1[C@@]1(C)O[C@@H]1CC=C(C)C [O-CHLOROACETYLCARBAMOYLFUMAGILLOL] | 7.03 µM (inactive) | 7.11 µM (inactive) | > 10 µM (inactive) | 1.67 µM (inactive) | 1.78 µM (inactive) | > 10 µM (inactive) | 8.83 µM (inactive) | 16.6 µM (inactive) | 6.35 µM (inactive) |
| C[S+](C)C1(c2ccccc2)C(=O)c2ccccc2C1=O | > 100 µM (inactive) | > 100 µM (inactive) | > 100 µM (inactive) |  | > 100 µM (inactive) | > 100 µM (inactive) | > 100 µM (inactive) | > 100 µM (inactive) | 32.4 µM (inactive) |
| CCP(C)(C)=O | > 100 µM (inactive) | > 100 µM (inactive) |  |  | > 100 µM (inactive) | > 100 µM (inactive) | > 100 µM (inactive) | > 100 µM (inactive) | > 100 µM (inactive) |
| CC(C)N(C(=O)C12C3C4C1C1C2C3C41C(=O)O)C(C)C (configuration not stated) | > 100 µM (inactive) | > 100 µM (inactive) |  |  | > 100 µM (inactive) |  | > 100 µM (inactive) | > 100 µM (inactive) |  |
| Cc1ccc(C(=O)OC(C)C)cc1/N=N/N(C)C |  | 56.5 µM (inactive) |  |  | 66.5 µM (inactive) | 55.3 µM (inactive) | > 100 µM (inactive) | 55.5 µM (inactive) |  |
